The target of this experiment is Beta-3 adrenergic receptor (Homo sapiens, UniProt P13945). Description: In vitro effective concentration against beta-3 adrenergic receptor.
Beta-3 adrenergic receptor, sequence (P13945 whole entry): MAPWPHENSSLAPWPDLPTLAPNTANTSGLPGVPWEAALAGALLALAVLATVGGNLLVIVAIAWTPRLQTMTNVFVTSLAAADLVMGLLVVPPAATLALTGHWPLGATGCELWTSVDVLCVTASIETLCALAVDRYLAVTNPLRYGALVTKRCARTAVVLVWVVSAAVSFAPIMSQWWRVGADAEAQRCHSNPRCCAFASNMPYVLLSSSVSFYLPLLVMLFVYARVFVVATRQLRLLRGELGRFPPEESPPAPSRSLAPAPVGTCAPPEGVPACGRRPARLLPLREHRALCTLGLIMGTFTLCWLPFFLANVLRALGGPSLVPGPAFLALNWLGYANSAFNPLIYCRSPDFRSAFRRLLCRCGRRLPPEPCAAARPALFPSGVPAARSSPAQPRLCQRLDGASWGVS
What is called EC50 is the midpoint of the concentration-response curve. Read a low EC50 as an effect from little substance. `CCCCCCn1c(O)cn(-c2ccc(S(=O)(=O)Nc3ccc(CCNC[C@H](O)c4cccnc4)cc3)cc2)c1=O` [4-(3-Hexyl-2,4-dioxo-imidazolidin-1-yl)-N-{4-[2-(2-hydroxy-2-pyridin-3-yl-ethylamino)-ethyl]-phenyl}-benzenesulfonamide] yielded an EC50 of 77.6 nM.

`CCCCCCn1cc(O)n(-c2ccc(S(=O)(=O)Nc3ccc(CCNC[C@H](O)c4cccnc4)cc3)cc2)c1=O` [4-(3-Hexyl-2,5-dioxo-imidazolidin-1-yl)-N-{4-[2-(2-hydroxy-2-pyridin-3-yl-ethylamino)-ethyl]-phenyl}-benzenesulfonamide] returned an EC50 of 3.63 nM.

For `CCCCCCCCn1cc(O)n(-c2ccc(S(=O)(=O)Nc3ccc(CCNC[C@H](O)c4cccnc4)cc3)cc2)c1=O` [N-{4-[2-((R)-2-Hydroxy-2-pyridin-3-yl-ethylamino)-ethyl]-phenyl}-4-(3-octyl-2,5-dioxo-imidazolidin-1-yl)-benzenesulfonamide], the 50% effective concentration (EC50) was determined as 63.1 nM.

(Values after BindingDB's records for doi:10.1016/s0960-894x(03)00491-8 (Central Drug Research Institute, 2003).)
